Entries after “also recorded” stand apart in the source; their conditions may differ.
How the values were obtained:
[1] = Supplementary Table S1; cited from earlier work
[2] = WHO adverse drug reactions VigiBase; ref Kumlien and Lundberg, 2010; cited from earlier work
[3] = seizure ADR frequency in SIDER; ref Campillos et al., 2008; Kuhn et al., 2010; cited from earlier work
[4] = ref National library of medicine, Daylimed; cited from earlier work
[5] = tested on: rat primary cortical neurons; test: MEA hazard scoring in rat primary cortical neuronal cultures; settings: for Area.Under.Cross.Correlation Lower.TI / Area.Under.Cross.Correlation Upper.TI / Burst.Duration...Avg.(s. Lower.TI) / Burst.Duration...Avg.(s. Upper.TI) / Mean.Firing.Rate..Hz. Lower.TI / Mean.Firing.Rate..Hz. Upper.TI / Median.Mean.ISI Lower.TI / Median.Mean.ISI Upper.TI: statistical tolerance interval of the ΔΔ% effect, One-sided interval; for hazard classification in the hazard scoring system: rat primary neurons on MEA
Protocol: At DIV28, spontaneous neuronal activity obtained for 30 min in culture solution was defined as the baseline.
Data analysis was captured using AxIs suite software (Axion Biosystems Inc., version 3.6.2) and further analyzed using GraphPad Prism (version 9.00; GraphPad Software Inc., San Diego, CA). […] An active well should have more than 40% active electrodes. All wells below this threshold were discarded upon these quality criteria. For the downstream statistical analysis, the data on each MEA parameter was first expressed as the ratio of exposed wells (percentage change between baseline and the treatment) and then normalized to the average of the control within the same plate. i.e., Baseline corrected ratios of n= 7 or eight wells were averaged per condition. Each well of the MEA served as its own control, and the changes in the electrical activity elicited by the treatments were expressed as a percentage of that control activity and normalized to the wells treated with the vehicle control dimethyl sulfoxide (DMSO). […] Differences were determined using the non-parametric Wilcoxon Mann Whitney test; p-values below 0.05 were considered significant. Data are expressed as means ± S.E.M.
Thereafter, based on the effects of vehicles and positive controls, we determined the cut-off points between the different effect zones according to the key parameters selected as described in the previous subsection. The zones were defined as follows. The “no effect” zone reflects parameter changes that are most likely within vehicle variability. The “mild” and “strong” zones are differentiated bidirectionally showing mild and strong effects.
The respective hazard class was determined by a cumulative scoring of individual parameters using a scoring matrix, which was based on the following three fundamental components: (1) selection of the six key relevant parameters, (2) defining the cutoffs for the level of effect, and (3) defining weighted points per parameter for the level of hazard potential. The scoring matrix concluded with the addition of a weighted point algorithm to discriminate distinct degrees of neuronal hazard. […] The weighted points were defined on the importance of a parameter (and the direction of effect), as well as the identification of an expected hazard for different pharmacological modes of action. The overall hazard score is derived from the sum of all weighted parameters, which could be converted into a specific hazard label. The weighted points and total score range associated with the various hazard labels were optimized using an iterative process.

[6] = established from VigiBase, SIDER, Elsevier drug information and FDA prescribing information

Compound | Free Cmax highest [1] [nM] | Percentage seizures of total number of ADRs [2] [%] | SIDER ADR on-/off-label [3] | FDA prescription information at therapeutic dose (Convulsion/ Seizure/Lower the seizure threshold/withdrawal) [4] | Classification* (degree of seizure risk) [6] | other results
CN(C)CCC=C1c2ccccc2CCc2ccccc21 [Amitriptyline] | 173 | 1.447 | no frequency information | not found on label |  | Area.Under.Cross.Correlation Lower.TI [5]: -100; Area.Under.Cross.Correlation Upper.TI [5]: -28.75; Burst.Duration...Avg.(s. Lower.TI) [5]: -100; Burst.Duration...Avg.(s. Upper.TI) [5]: 2740; Mean.Firing.Rate..Hz. Lower.TI [5]: -100; Mean.Firing.Rate..Hz. Upper.TI [5]: -25.19; Median.Mean.ISI Lower.TI [5]: -60.49; Median.Mean.ISI Upper.TI [5]: 9.96
CC(=O)Oc1ccccc1C(=O)O [Aspirin] | 43400 | 0.216 | not found on label | not found on label | No risk | 
COC(=O)C1=C(C)NC(C)=C([N+](=O)[O-])C1c1ccccc1C(F)(F)F (stereo not shown) [BayK 8644] |  |  |  |  | No risk | 
CC(C)C[C@H]1C(=O)N2CCC[C@H]2[C@]2(O)O[C@](NC(=O)[C@@H]3C=C4c5cccc6[nH]c(Br)c(c56)C[C@H]4N(C)C3)(C(C)C)C(=O)N12 [Bromocriptine] | 1.4 | 3.063 | postmarketing | On label | Risk | 
Cn1c(=O)c2c(ncn2C)n(C)c1=O [Caffeine] | 23300 |  |  |  |  | Area.Under.Cross.Correlation Lower.TI [5]: 6.336; Area.Under.Cross.Correlation Upper.TI [5]: 111.5; Burst.Duration...Avg.(s. Lower.TI) [5]: -5.73; Burst.Duration...Avg.(s. Upper.TI) [5]: 16.22; Mean.Firing.Rate..Hz. Lower.TI [5]: 8.914; Mean.Firing.Rate..Hz. Upper.TI [5]: 94.17; Median.Mean.ISI Lower.TI [5]: -1.251; Median.Mean.ISI Upper.TI [5]: 10.27
Cc1ccc(-c2cc(C(F)(F)F)nn2-c2ccc(S(N)(=O)=O)cc2)cc1 [Celecoxib] | 410 | 0.3553 | not found on label | not found on label |  | hazard classification in the hazard scoring system [5]: high hazard
NS(=O)(=O)c1cc2c(cc1Cl)NC(C1CC3C=CC1C3)NS2(=O)=O (stereo not shown) [Cyclothiazide] | 3000 | 0 |  |  | Risk | 
C[C@]12N[C@H](Cc3ccccc31)c1ccccc12 [Dizocilpine (MK-801), Dizocilpine] |  |  |  |  |  | Area.Under.Cross.Correlation Lower.TI [5]: -94.33; Area.Under.Cross.Correlation Upper.TI [5]: -47.25; Burst.Duration...Avg.(s. Lower.TI) [5]: -41.38; Burst.Duration...Avg.(s. Upper.TI) [5]: 248.8; Mean.Firing.Rate..Hz. Lower.TI [5]: -92.35; Mean.Firing.Rate..Hz. Upper.TI [5]: -66.07; Median.Mean.ISI Lower.TI [5]: -38.05; Median.Mean.ISI Upper.TI [5]: 23.07
N[C@@]1(C(=O)O)CC[C@H]2[C@H](C(=O)O)[C@H]21 [Eglumetad (LY354740), Eglumetad] |  |  |  |  | Risk | 
CCN(CC)C(=O)/C(C#N)=C/c1cc(O)c(O)c([N+](=O)[O-])c1 [Entacapone] | 130 | 0.4204 | no frequency information | not found on label | Risk | 
CCN1C(=O)OC(C)(C)C1=O [Ethadione] |  |  |  |  | Risk | 
NC(=O)OCC(COC(N)=O)c1ccccc1 [Felbamate] | 181000 | 9.4112 | not found on label | on label | Low risk | 
CNCCC(Oc1ccc(C(F)(F)F)cc1)c1ccccc1 (stereo not shown) [Fluoxetine] | 470 | 1.97 | uncommon | On label | Risk | 
COc1ccc(COc2ccc(Cc3cnc(N)nc3N)cc2OC)cc1 [GW-2580] |  |  |  |  | Risk | 
NN [Hydrazine] |  |  |  |  | Risk | 
NC(CCP(=O)(O)O)C(=O)O [L-AP 4] |  |  |  |  | Risk | 
C[C@](N)(Cc1ccc(O)c(O)c1)C(=O)O [Methyldopa] | 3300 | 0.1002 | not found on label | not found on label |  | hazard classification in the hazard scoring system [5]: high hazard

Compound | Free Cmax highest [1] [nM] | Percentage seizures of total number of ADRs [2] [%] | SIDER ADR on-/off-label [3] | FDA prescription information at therapeutic dose (Convulsion/ Seizure/Lower the seizure threshold/withdrawal) [4] | Classification* (degree of seizure risk) [6] | other results
Cc1cc2c(s1)Nc1ccccc1N=C2N1CCN(C)CC1 [Olanzapine] |  |  |  |  | No risk | 
C1CCc2nnnn2CC1 [Pentylenetetrazole] |  |  |  |  | Risk | 
FC(F)(F)c1ccc(CNc2ccc(Cc3c[nH]c4ncc(Cl)cc34)cn2)cn1 [Pexidartinib] | 100 | 0.5386 |  | not found on label | Risk | 
O=C1NC(=O)C(c2ccccc2)(c2ccccc2)N1 [Phenytoin] | 8127 | 8.075 | infrequent (0.1-1%) | On label |  | hazard classification in the hazard scoring system [5]: hazards; also recorded: high hazard
[Br-].[K+] [Potassium bromide] |  | 4.831 |  | not found on label | No risk | 
CCN(CC)CCCC(C)Nc1c2ccc(Cl)cc2nc2ccc(OC)cc12 (stereo not shown) [Quinacrine] | 130 | 1.17 |  | not found on label | No risk | 
Cc1ccc(COC(=O)N2CC[C@H](CNc3ncccn3)[C@H](F)C2)cc1 [Rislenemdaz (CERC-301), Rislenemdaz] | 4 |  |  |  | Risk | 
CS(=O)(=O)c1ccc(C2=C(c3ccccc3)C(=O)OC2)cc1 [Rofecoxib] | 130 | 1.2136 | not found on label |  | No risk | 
CNC(=O)c1cc(Oc2ccc3nc(N[C@@H]4CCCC[C@H]4O)sc3c2)ccn1 [Sotuletinib] |  |  |  |  | Risk | 
O=C1C[C@@H]2OCC=C3CN4CC[C@]56c7ccccc7N1[C@H]5[C@H]2[C@H]3C[C@H]46 [Strychnine] |  | 0 |  |  | Risk | 
OC(CCN1CCCCC1)(c1ccccc1)C1CCCCC1 (stereo not shown) [Trihexyphenidyl] | 24 | 0.7979 | not found on label | not found on label |  | 
CN1[C@@H]2CC[C@H]1C[C@@H](OC(=O)c1c[nH]c3ccccc13)C2 [Tropisetron] | 80 | 1.067 | not found on label |  | No risk | 
CCCC(CCC)C(=O)O [Valproic acid] | 92000 | 4.854 | not found on label | on label |  | 
O=C1c2ccccc2C(Cc2ccncc2)(Cc2ccncc2)c2ccccc21 [XE-991] |  |  |  |  | Risk | 
CCCCCCOc1nsnc1C1=CCCN(C)C1 [Xanomeline] |  |  |  |  | Risk | 
Tertiapin |  |  |  |  | Low risk | 

Source: article PMC11170107, “Development of a new hazard scoring system in primary neuronal cell cultures for drug-induced acute neuronal toxicity identification in early drug discovery” (Frontiers in Pharmacology, 2024)
